Test results reported in ChEMBL document CHEMBL6103613 (J Med Chem, 2025).
Values after ≈ are worked out from the molar mass of the structure shown.

Legend:
Type in all cases: functional
Enterococcus faecalis = assay: Antimicrobial activity against Enterococcus faecalis ATCC 19433 assessed as inhibition of visible bacterial growth incubated for 18 hrs by CLSI based analysis
Staphylococcus aureus [1] = assay: Antibacterial activity against methicillin-resistant Staphylococcus aureus infected in kunming mouse keratitis model assessed as log reduction in colony count at 5 mg/kg, ip measured upto 8 days; conditions: time <= 8 day
Staphylococcus aureus [2] = assay: Antimicrobial activity against methicillin-resistant Staphylococcus aureus clinical isolate 4 assessed as inhibition of visible bacterial growth incubated for 18 hrs by CLSI based analysis
[3] = tested on: Staphylococcus epidermidis; assay: Antimicrobial activity against Staphylococcus epidermidis ATCC 12228 assessed as inhibition of visible bacterial growth incubated for 18 hrs by CLSI based analysis
Bacillus subtilis = assay: Antimicrobial activity against Bacillus subtilis ATCC 23875 assessed as inhibition of visible bacterial growth incubated for 18 hrs by CLSI based analysis
Staphylococcus aureus [4] = assay: Antimicrobial activity against methicillin-resistant Staphylococcus aureus ATCC 43300 assessed as inhibition of visible bacterial growth incubated for 18 hrs by CLSI based analysis
Staphylococcus aureus [5] = assay: Antimicrobial activity against Staphylococcus aureus ATCC 25923 assessed as inhibition of visible bacterial growth incubated for 18 hrs by CLSI based analysis
Staphylococcus aureus [6] = assay: Antimicrobial activity against methicillin-resistant Staphylococcus aureus clinical isolate 2 assessed as inhibition of visible bacterial growth incubated for 18 hrs by CLSI based analysis
Enterococcus faecium = assay: Antimicrobial activity against vancomycin-resistant Enterococcus faecium assessed as inhibition of visible bacterial growth incubated for 18 hrs by CLSI based analysis
Enterococcus gallinarum = assay: Antimicrobial activity against Enterococcus gallinarum ATCC 49573 assessed as inhibition of visible bacterial growth incubated for 18 hrs by CLSI based analysis
Staphylococcus aureus [7] = assay: Antimicrobial activity against methicillin-resistant Staphylococcus aureus clinical isolate 3 assessed as inhibition of visible bacterial growth incubated for 18 hrs by CLSI based analysis
Staphylococcus aureus [8] = assay: Drug resistance, ratio of MIC for Staphylococcus aureus after 12 passages to MIC for Staphylococcus aureus during first exposure
Staphylococcus aureus [9] = assay: Drug resistance, ratio of MIC for Staphylococcus aureus after 15 passages to MIC for Staphylococcus aureus during first exposure
Staphylococcus aureus [10] = assay: Drug resistance, ratio of MIC for Staphylococcus aureus after 6 passages to MIC for Staphylococcus aureus during first exposure
Staphylococcus aureus [11] = assay: Drug resistance, ratio of MIC for Staphylococcus aureus after 21 passages to MIC for Staphylococcus aureus during first exposure

| SMILES | MIC (Enterococcus faecalis) [µg/mL] | FC (Staphylococcus aureus [1]) | MIC (Staphylococcus aureus [2]) [µg/mL] | MIC [3] [µg/mL] | MIC (Bacillus subtilis) [µg/mL] | MIC (Staphylococcus aureus [4]) [µg/mL] | MIC (Staphylococcus aureus [5]) [µg/mL] | MIC (Staphylococcus aureus [6]) [µg/mL] | MIC (Enterococcus faecium) [µg/mL] | MIC (Enterococcus gallinarum) [µg/mL] | MIC (Staphylococcus aureus [7]) [µg/mL] | Ratio (Staphylococcus aureus [8]) | Ratio (Staphylococcus aureus [9]) | Ratio (Staphylococcus aureus [10]) | Ratio (Staphylococcus aureus [11]) |
| --- | --- | --- | --- | --- | --- | --- | --- | --- | --- | --- | --- | --- | --- | --- | --- |
| CC(=O)NC[C@H]1CN(c2ccc(N3CCOCC3)c(F)c2)C(=O)O1 [LINEZOLID] | 1.56 (≈ 4.62 µM) | 0.864 | 1.56 (≈ 4.62 µM) | 0.39 (≈ 1.16 µM) | 1.56 (≈ 4.62 µM) | 1.56 (≈ 4.62 µM) | 1.56 (≈ 4.62 µM) | 3.13 (≈ 9.28 µM) | 1.56 (≈ 4.62 µM) | 1.56 (≈ 4.62 µM) | 1.56 (≈ 4.62 µM) | – | – | – | – |
| CC1(C)S[C@@H]2[C@H](NC(=O)[C@H](N)c3ccc(O)cc3)C(=O)N2[C@H]1C(=O)O [AMOXICILLIN] | – | – | – | – | – | – | – | – | – | – | – | 30 | 250 | 10 | 250 |
